Experimental data reported in patent US12351570B2 (MERCK PATENT GMBH, priority 2018, dated 2025).

System: MDA-MB-231 cells
Assay: Extracellular lactate production inhibition after 4 h, MDA-MB-231
Details: Homo sapiens, MDA-MB-231

Compound | IC50
CCOc1ccc(S(=O)(=O)Nc2ccccc2C#Cc2ccc(C(=O)O)nc2)c2ccccc12 [Compound 284, 5-{2-[2-(4-ethoxynaphthalene-1-sulfonamido)phenyl]ethynyl}pyridine-2-carboxylic acid] | 10 to 100 nM
O=C(O)c1ccc(C#Cc2ccccc2NS(=O)(=O)c2ccc(-c3ccccc3)cc2)cc1 [Compound 153, 4-[2-(2-{[1,1′-biphenyl]-4-sulfonamido}phenyl)ethynyl]benzoic acid] | 100 to 1000 nM
COc1ccc(S(=O)(=O)Nc2ccccc2C#Cc2ccc(C(=O)O)nc2)c(C)c1 [Compound 72, 5-{2-[2-(4-methoxy-2-methylbenzenesulfonamido)phenyl]-ethynyl}pyridine-2-carboxylic acid] | 1000 to 100000 nM
CC1CCN(S(=O)(=O)Nc2ccccc2C#Cc2ccc(C(=O)O)nc2)C2CCCCC12 (stereo not shown) [Compound 228, 5-[2-(2-{[(4-methyl-decahydroquinolin-1-yl)sulfonyl]amino}phenyl)ethynyl]pyridine-2-carboxylic acid] | 10 to 100 nM
O=C(O)c1ccc(C#Cc2ccccc2NS(=O)(=O)N2CCc3ccccc3C2)cn1 [Compound 113, 5-(2-{2-[(1,2,3,4-tetrahydroisoquinoline-2-sulfonyl)amino]phenyl}ethynyl)pyridine-2-carboxylic acid] | 1000 to 100000 nM
NCCOCCOCCOc1ccc(NS(=O)(=O)c2cccc3cccnc23)c(C#Cc2ccc(C(=O)O)nc2)c1 [Compound 333, 5-[5-{2-[2-(2-Amino-ethoxy)-ethoxy]-ethoxy}-2-(quinoline-8-sulfonylamino)-phenylethynyl]-pyridine-2-carboxylic acid] | 1000 to 100000 nM
O=C(O)c1ncc(C#Cc2ccccc2NS(=O)(=O)c2ccc3ccccc3c2)cc1F [Compound 65, 3-fluoro-5-{2-[2-(naphthalene-2-sulfonamido)phenyl]ethynyl}pyridine-2-carboxylic acid] | 1000 to 100000 nM
Cc1c(C)c(S(=O)(=O)Nc2ccccc2C#Cc2ccc(C(=O)O)nc2)c2ncccc2c1C [Compound 305, 5-{2-[2-(5,6,7-trimethylquinoline-8-sulfonamido)phenyl]ethynyl}pyridine-2-carboxylic acid] | 10 to 100 nM
COc1ccc(NS(=O)(=O)c2c(C)ccc3cccnc23)c(C#Cc2ccc(C(=O)O)nc2)c1 [Compound 247, 5-{2-[5-methoxy-2-(7-methylquinoline-8-sulfonamido)phenyl]ethynyl}pyridine-2-carboxylic acid] | 10 to 100 nM
COC(=O)c1cc(C)c(C#Cc2cc(F)ccc2NS(=O)(=O)c2c(C)ccc3cccnc23)cn1 [Compound 146, methyl 5-{2-[5-fluoro-2-(7-methylquinoline-8-sulfonamido)phenyl]ethynyl}-4-methylpyridine-2-carboxylate] | 10 to 100 nM
Cc1cc(C#Cc2cc(F)ccc2NS(=O)(=O)c2ccc3c(c2)oc2ccccc23)cnc1C(=O)O [Compound 309, 5-[2-(5-fluoro-2-{8-oxatricyclo[7.4.0.0^2,7]trideca-1(9),2(7),3,5,10,12-hexaene-5-sulfonamido}phenyl)ethynyl]-3-methylpyridine-2-carboxylic acid] | 100 to 1000 nM
CCCc1ccc(S(=O)(=O)Nc2ccccc2C#Cc2ccc(C(=O)O)nc2)c2ncccc12 [Compound 414, 5-{2-[2-(5-propylquinoline-8-sulfonamido)phenyl]ethynyl}pyridine-2-carboxylic acid] | 10 to 100 nM
CCc1cc(C#Cc2ccccc2NS(=O)(=O)c2cccc3cccnc23)cnc1C(=O)O [Compound 345, 3-Ethyl-5-[2-(quinoline-8-sulfonylamino)-phenylethynyl]-pyridine-2-carboxylic acid] | 10 to 100 nM
CCCCOC(=O)c1ccc(C#Cc2ccccc2NS(=O)(=O)c2ccc(OC)c3cccnc23)cn1 [Compound 168, butyl 5-{2-[2-(5-methoxyquinoline-8-sulfonamido)phenyl]ethynyl}pyridine-2-carboxylate] | 10 to 100 nM
COC(=O)c1ncc(C#Cc2cc(F)ccc2NS(=O)(=O)c2ccc3c(c2)oc2ccccc23)cc1C [Compound 318, methyl 5-[2-(5-fluoro-2-{8-oxatricyclo[7.4.0.0^2,7]trideca-1(9),2(7),3,5,10,12-hexaene-5-sulfonamido}phenyl)ethynyl]-3-methylpyridine-2-carboxylate] | 1000 to 100000 nM

The remaining lines, values ahead:

IC50 | Compound
100 to 1000 nM | COc1ccccc1-c1cccc(S(=O)(=O)Nc2ccccc2C#Cc2ccc(C(=O)O)nc2)c1 [Compound 114, 5-[2-(2-{2′-methoxy-[1,1′-biphenyl]-3-sulfonamido}phenyl)ethynyl]pyridine-2-carboxylic acid]
100 to 1000 nM | COc1ccc(S(=O)(=O)Nc2ccccc2C#Cc2ccc(C(=O)O)cc2)cc1C [Compound 56, 4-{2-[2-(4-methoxy-3-methylbenzenesulfonamido)phenyl]-ethynyl}benzoic acid]
1000 to 100000 nM | COc1ccc(S(=O)(=O)Nc2ccccc2C#Cc2ccc(C(=O)O)nc2)c(Cl)c1 [Compound 287, 5-{2-[2-(2-chloro-4-methoxybenzene-sulfonamido)phenyl]ethynyl}pyridine-2-carboxylic acid]
100 to 1000 nM | Cc1cc(C#Cc2ccccc2NS(=O)(=O)c2cccc3ccccc23)ccc1C(=O)O [Compound 80, 2-methyl-4-{2-[2-(naphthalene-1-sulfonamido)phenyl]ethynyl}benzoic acid]
100 to 1000 nM | O=C(O)c1ccc(C#Cc2ccccc2NS(=O)(=O)c2cccc3cc(Cl)cnc23)cc1 [Compound 270, 4-[2-(3-Chloro-quinoline-8-sulfonyl-amino)-phenylethynyl]-benzoic acid]
100 to 1000 nM | Cc1ccc2cccnc2c1S(=O)(=O)Nc1ccccc1C#Cc1ccc(C(=O)OCC2COC(C)(C)O2)nc1 (stereo not shown) [Compound 404, (2,2-dimethyl-1,3-dioxolan-4-yl)methyl 5-{2-[2-(7-methylquinoline-8-sulfonamido)phenyl]ethynyl}pyridine-2-carboxylate]
10 to 100 nM | COc1ccc(S(=O)(=O)Nc2ccc(Cl)cc2C#Cc2cnc(C(=O)O)cc2OC)cc1 [Compound 388, 5-[5-Chloro-2-(4-methoxy-benzenesulfonylamino)-phenylethynyl]-4-methoxy-pyridine-2-carboxylic acid]
100 to 1000 nM | COc1ccc(S(=O)(=O)Nc2ccccc2C#Cc2ccc(C(=O)O)cc2)c(Cl)c1Cl [Compound 23, 4-{2-[2-(2,3-dichloro-4-methoxybenzenesulfonamido)phenyl]-ethynyl}benzoic acid]
1000 to 100000 nM | O=CN(Cc1cnc2ccccc2c1)c1ccccc1C#Cc1ccc(C(=O)O)nc1 [Compound 196, 5-[2-(2-{N-[(quinolin-3-yl)methyl]formamido}phenyl)ethynyl]-pyridine-2-carboxylic acid]
100 to 1000 nM | O=CN(Cc1cccc(-c2ccccc2)c1)c1ccccc1C#Cc1ccc(C(=O)O)nc1 [Compound 181, 5-(2-{2-[N-({[1,1′-biphenyl]-3-yl}methyl)formamido]phenyl}-ethynyl)pyridine-2-carboxylic acid]
1000 to 100000 nM | COc1ccc(S(=O)(=O)Nc2ccccc2C#Cc2ccc(C(=O)NS(C)(=O)=O)cc2)c2ccccc12 [Compound 252, 4-Methoxy-naphthalene-1-sulfonic acid [2-(4-methanesulfonylaminocarbonyl-phenylethynyl)-phenyl]-amide]
10 to 100 nM | COc1ccc(S(=O)(=O)Nc2ccccc2C#Cc2cnc(C(=O)O)cc2C)c2ncccc12 [Compound 110, 5-{2-[2-(5-methoxyquinoline-8-sulfonamido)phenyl]ethynyl}-4-methylpyridine-2-carboxylic acid]
100 to 1000 nM | COCCOC(=O)c1cc(OC)c(C#Cc2ccccc2NS(=O)(=O)c2ccc(OC)c3cccnc23)cn1 [Compound 405, 2-methoxyethyl 4-methoxy-5-{2-[2-(5-methoxyquinoline-8-sulfonamido)phenyl]ethynyl}pyridine-2-carboxylate]
100 to 1000 nM | O=C(O)c1ccc(C#Cc2ccccc2NS(=O)(=O)c2cc3cc(Cl)ccc3s2)cc1 [Compound 281, 4-{2-[2-(5-chloro-1-benzothiophene-2-sulfonamido)phenyl]ethynyl}benzoic acid]
1000 to 100000 nM | COCC(=O)Nc1ccc(C#Cc2ccc(C(=O)O)nc2)c(NS(=O)(=O)c2ccc(OC)c3cccnc23)c1 [Compound 173, 5-{2-[4-(2-methoxyacetamido)-2-(5-methoxyquinoline-8-sulfonamido)phenyl]ethynyl}pyridine-2-carboxylic acid]
100 to 1000 nM | O=C(O)c1ccc(C#Cc2ccccc2NS(=O)(=O)c2cccc3c(Cl)cc(Cl)nc23)cn1 [Compound 314, 5-{2-[2-(2,4-dichloroquinoline-8-sulfonamido)phenyl]ethynyl}pyridine-2-carboxylic acid]
100 to 1000 nM | O=C(O)c1ccc(C#Cc2ccccc2NS(=O)(=O)c2ccc3ccccc3c2)cc1F [Compound 14, 2-fluoro-4-{2-[2-(naphthalene-2-sulfonamido)phenyl]ethynyl}benzoic acid]
100 to 1000 nM | O=C(O)c1ccc(C#Cc2ccccc2NS(=O)(=O)c2cccc3scnc23)cn1 [Compound 109, 5-{2-[2-(1,3-benzothiazole-4-sulfonamido)phenyl]ethynyl}pyridine-2-carboxylic acid]
100 to 1000 nM | O=C(O)c1ccc(C#Cc2ccccc2NC(=O)N2CCCc3cccnc32)cn1 [Compound 151, 5-(2-{2-[(1,2,3,4-tetrahydro-1,8-naphthyridine-1-carbonyl)amino]phenyl}-ethynyl)pyridine-2-carboxylic acid]
10 to 100 nM | C=C(C)c1cc(C(=O)O)ncc1C#Cc1ccccc1NS(=O)(=O)c1c(C)ccc2cccnc12 [Compound 158, 5-{2-[2-(7-methylquinoline-8-sulfonamido)phenyl]ethynyl}-4-(prop-1-en-2-yl)pyridine-2-carboxylic acid]
100 to 1000 nM | COc1ncc(S(=O)(=O)Nc2ccccc2C#Cc2ccc(C(=O)O)cc2)cc1Br [Compound 48, 4-{2-[2-(5-bromo-6-methoxypyridine-3-sulfonamido)phenyl]ethynyl}benzoic acid]
1000 to 100000 nM | O=C(O)c1ccc(C#Cc2ccccc2NS(=O)(=O)c2ccc3ncccc3c2)cc1 [Compound 55, 4-{2-[2-(quinoline-6-sulfonamido)phenyl]ethynyl}benzoic acid]
